Data as given in patent publication US9073855B2, “BCL-2 selective apoptosis-inducing agents for the treatment of cancer and immune diseases” (AbbVie Inc., priority 2008, dated 2015).

Experiments:
[1] = target: GST-Bcl-2 (Homo sapiens, UniProt P10415); assay: TR-FRET binding assay, GST-Bcl-2 with F-Bak peptide probe; conditions: for Ki: TR-FRET Binding Affinity
In short: (§1)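 Competitive TR-FRET: GST-fusion protein, fluorescent Bak peptide probe and Tb-labelled anti-GST antibody incubated with compound dilution series (starting 50 μM as 2× stock, 10% DMSO) for 3 h at RT. Excitation 340/35 nm; Ki derived via Wang's exact competitive-binding equation.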

[2] = target: GST-Bcl-XL (Homo sapiens, UniProt Q07817); assay: TR-FRET binding assay, GST-Bcl-XL with F-Bak peptide probe; conditions: TR-FRET Binding Affinity
In short: as §1

[3] = TR-FRET, Bcl-XL Ki divided by Bcl-2 Ki
[4] = GST-Bcl-XL, F-Bak peptide probe
[5] = ratio of TR-FRET Ki values, Bcl-XL over Bcl-2

Chain of GST-Bcl-2 (P10415 whole entry, the tested form may be a part): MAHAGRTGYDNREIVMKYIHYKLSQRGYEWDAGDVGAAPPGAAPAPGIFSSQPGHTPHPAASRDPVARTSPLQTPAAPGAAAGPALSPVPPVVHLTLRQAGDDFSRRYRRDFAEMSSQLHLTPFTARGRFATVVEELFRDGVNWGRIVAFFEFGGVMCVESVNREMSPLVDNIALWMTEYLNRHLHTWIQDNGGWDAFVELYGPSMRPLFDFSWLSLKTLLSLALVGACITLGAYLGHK
Chain of GST-Bcl-XL (Q07817 whole entry): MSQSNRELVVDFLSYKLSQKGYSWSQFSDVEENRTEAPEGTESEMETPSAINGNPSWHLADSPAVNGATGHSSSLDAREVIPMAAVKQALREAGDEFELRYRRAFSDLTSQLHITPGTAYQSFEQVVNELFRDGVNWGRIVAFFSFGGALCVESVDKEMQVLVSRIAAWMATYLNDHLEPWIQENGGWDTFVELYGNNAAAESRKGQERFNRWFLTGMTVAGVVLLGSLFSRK

## CC1(C)CCC(CN2CCN(c3ccc(C(=O)NS(=O)(=O)c4cnc(OCC5(F)CCOCC5)c(Cl)c4)c(Oc4cccc5[nH]cnc45)c3)CC2)=C(c2ccc(Cl)cc2)C1 [Example 443, 2-(1H-benzimidazol-4-yloxy)-N-({5-chloro-6-[(4-fluorotetrahydro-2H-pyran-4-yl)methoxy]pyridin-3-yl}sulfonyl)-4-(4-{[2-(4-chlorophenyl)-4,4-dimethylcyclohex-1-en-1-yl]methyl}piperazin-1-yl)benzamide]
[1]
  Ki: < 0.01 nM
[2]
  Ki: 19.4 nM

## CC1(C)CCC(CN2CCN(c3ccc(C(=O)NS(=O)(=O)c4ccc(NC5CCN(C6CC6)CC5)c([N+](=O)[O-])c4)c(Oc4cccc5[nH]ncc45)c3)CC2)=C(c2ccc(Cl)cc2)C1 [Example 436, 4-(4-{[2-(4-chlorophenyl)-4,4-dimethylcyclohex-1-en-1-yl]methyl}piperazin-1-yl)-N-({4-[(1-cyclopropylpiperidin-4-yl)amino]-3-nitrophenyl}sulfonyl)-2-(1H-indazol-4-yloxy)benzamide]
[1]
  Ki: 0.011 nM
[2]
  Ki: 6.5 nM

## CC1(C)CCC(CN2CCN(c3ccc(C(=O)NS(=O)(=O)c4ccc(OCC5CCC6(CC5)COC6)c([N+](=O)[O-])c4)c(Oc4cccc5[nH]ncc45)c3)CC2)=C(c2ccc(Cl)cc2)C1 [Example 535, 4-(4-{[2-(4-chlorophenyl)-4,4-dimethylcyclohex-1-en-1-yl]methyl}piperazin-1-yl)-2-(1H-indazol-4-yloxy)-N-{[3-nitro-4-(2-oxaspiro[3.5]non-7-ylmethoxy)phenyl]sulfonyl}benzamide]
[1]
  Ki: < 0.01 nM
[1]; [3]
  Binding selectivity ratio (Bcl-XL Ki/Bcl-2 Ki): >250.5
[2]
  Ki: 2.5 nM

## CC1(C)CCC(CN2CCN(c3cc(Oc4cccc5[nH]ncc45)c(C(=O)NS(=O)(=O)c4ccc(NCC5(F)CCOCC5)c([N+](=O)[O-])c4)cc3Cl)CC2)=C(c2ccc(Cl)cc2)C1 [Example 511, 5-chloro-4-(4-{[2-(4-chlorophenyl)-4,4-dimethylcyclohex-1-en-1-yl]methyl}piperazin-1-yl)-N-[(4-{[(4-fluorotetrahydro-2H-pyran-4-yl)methyl]amino}-3-nitrophenyl)sulfonyl]-2-(1H-indazol-4-yloxy)benzamide]
[1]
  Ki: < 0.01 nM
[1]; [3]
  Binding selectivity ratio (Bcl-XL Ki/Bcl-2 Ki): >2159.2
[2]
  Ki: 21.6 nM

## CN(C)CCCCNc1ccc(S(=O)(=O)NC(=O)c2ccc(N3CCN(Cc4ccccc4-c4ccc(Cl)cc4)CC3)cc2Oc2ccccc2)cc1[N+](=O)[O-] [Example 156, 4-{4-[(4′-chloro-1,1′-biphenyl-2-yl)methyl]piperazin-1-yl}-N-[(4-{[4-(dimethylamino)butyl]amino}-3-nitrophenyl)sulfonyl]-2-phenoxybenzamide]
[1]; GST-Bcl-2, F-Bak peptide probe
  Ki: 0.116 nM
[2]; [4]
  Ki: 6.16 nM

## CN(C)CC[C@H](Nc1ccc(S(=O)(=O)NC(=O)c2ccc(N3CCN(Cc4ccccc4-c4ccc(Cl)cc4)CC3)cc2Oc2ccccc2)cc1[N+](=O)[O-])c1cccs1 [Example 161, 4-{4-[(4′-chloro-1,1′-biphenyl-2-yl)methyl]piperazin-1-yl}-N-[(4-{[(1S)-3-(dimethylamino)-1-thien-2-ylpropyl]amino}-3-nitrophenyl)sulfonyl]-2-phenoxybenzamide]
[1]; GST-Bcl-2, F-Bak peptide probe
  Ki: 1.71 nM
[2]; [4]
  Ki: > 660 nM

## CC1(C)CCC(c2ccc(Cl)cc2)=C(CN2CCN(c3ccc(C(=O)NS(=O)(=O)c4ccc(NCCCN5CCOCC5)c([N+](=O)[O-])c4)c(Oc4ccc5[nH]ccc5c4)c3)CC2)C1 [Example 50, 4-(4-{[2-(4-chlorophenyl)-5,5-dimethylcyclohex-1-en-1-yl]methyl}piperazin-1-yl)-2-(1H-indol-5-yloxy)-N-({4-[(3-morpholin-4-ylpropyl)amino]-3-nitrophenyl}sulfonyl)benzamide]
[1]; GST-Bcl-2, F-Bak peptide probe
  Ki: 0.471 nM
[2]; [4]
  Ki: 90.1 nM

## CN1CCN(c2ccc(S(=O)(=O)NC(=O)c3ccc(N4CCN(CC5=C(c6ccc(Cl)cc6)CC(C)(C)CC5)CC4)cc3Oc3ccc4[nH]ccc4c3)cc2[N+](=O)[O-])CC1 [Example 107, 4-(4-{[2-(4-chlorophenyl)-4,4-dimethylcyclohex-1-en-1-yl]methyl}piperazin-1-yl)-2-(1H-indol-5-yloxy)-N-{[4-(4-methylpiperazin-1-yl)-3-nitrophenyl]sulfonyl}benzamide]
[1]; GST-Bcl-2, F-Bak peptide probe
  Ki: 2.09 nM
[2]; [4]
  Ki: 130 nM

## CC1(C)CCC(CN2CCN(c3ccc(C(=O)NS(=O)(=O)c4cnc(NC5CCN(C6CC6)CC5)c(Cl)c4)c(Oc4cccc5[nH]cnc45)c3)CC2)=C(c2ccc(Cl)cc2)C1 [Example 449, 2-(1H-benzimidazol-4-yloxy)-N-({5-chloro-6-[(1-cyclopropylpiperidin-4-yl)amino]pyridin-3-yl}sulfonyl)-4-(4-{[2-(4-chlorophenyl)-4,4-dimethylcyclohex-1-en-1-yl]methyl}piperazin-1-yl)benzamide]
[1]
  Ki: 0.24 nM
[1]; [3]
  Binding selectivity ratio (Bcl-XL Ki/Bcl-2 Ki): 74.4
[2]
  Ki: 17.8 nM

## CC1(C)CCC(CN2CCN(c3ccc(C(=O)NS(=O)(=O)c4ccc(NC5CCN(C6CCOCC6)CC5)c([N+](=O)[O-])c4)c(Oc4cccc5[nH]cnc45)c3)CC2)=C(c2ccc(Cl)cc2)C1 [Example 417, 2-(1H-benzimidazol-4-yloxy)-4-(4-{[2-(4-chlorophenyl)-4,4-dimethylcyclohex-1-en-1-yl]methyl}piperazin-1-yl)-N-({3-nitro-4-[(1-tetrahydro-2H-pyran-4-ylpiperidin-4-yl)amino]phenyl}sulfonyl)benzamide]
[1]; GST-Bcl-2, F-Bak peptide probe
  Ki: 0.046 nM
[1]; [5]
  Binding selectivity ratio (Bcl-XL Ki/Bcl-2 Ki): 87.1
[2]; [4]
  Ki: 3.99 nM

## CCN1CCCC1CNC(=O)c1cc(S(=O)(=O)NC(=O)c2ccc(N3CCN(Cc4ccccc4-c4ccc(Cl)cc4)CC3)cc2Oc2ccccc2)ccc1OC (stereo not drawn) [Example 33, 4-{4-[(4′-chloro-1,1′-biphenyl-2-yl)methyl]piperazin-1-yl}-N-{[3-({[(1-ethylpyrrolidin-2-yl)methyl]amino}carbonyl)-4-methoxyphenyl]sulfonyl}-2-phenoxybenzamide]
[1]; GST-Bcl-2, F-Bak peptide probe
  Ki: 6.68 nM
[2]; [4]
  Ki: 333 nM

## CN1CCN(CCNc2ccc(S(=O)(=O)NC(=O)c3ccc(N4CCN(Cc5ccccc5-c5ccc(Cl)cc5)CC4)cc3Oc3ccccc3)cc2[N+](=O)[O-])CC1 [Example 85, 4-{4-[(4′-chloro-1,1′-biphenyl-2-yl)methyl]piperazin-1-yl}-N-[(4-{[2-(4-methylpiperazin-1-yl)ethyl]amino}-3-nitrophenyl)sulfonyl]-2-phenoxybenzamide]
[1]; GST-Bcl-2, F-Bak peptide probe
  Ki: 0.236 nM
[2]; [4]
  Ki: 11.5 nM

## CN1CCC(Nc2ccc(S(=O)(=O)NC(=O)c3ccc(N4CCN(CC5=C(c6ccc(Cl)cc6)CC(C)(C)CC5)CC4)cc3Oc3cccc4c3CCN4)cc2[N+](=O)[O-])CC1 [Example 395, 4-(4-{[2-(4-chlorophenyl)-4,4-dimethylcyclohex-1-en-1-yl]methyl}piperazin-1-yl)-2-(2,3-dihydro-1H-indol-4-yloxy)-N-({4-[(1-methylpiperidin-4-yl)amino]-3-nitrophenyl}sulfonyl)benzamide]
[1]; GST-Bcl-2, F-Bak peptide probe
  Ki: 0.798 nM
[1]; [5]
  Binding selectivity ratio (Bcl-XL Ki/Bcl-2 Ki): 23.6
[2]; [4]
  Ki: 18.8 nM

## COCCOCCN1CCO[C@H](CNc2ccc(S(=O)(=O)NC(=O)c3ccc(N4CCN(CC5=C(c6ccc(Cl)cc6)CC(C)(C)CC5)CC4)cc3Oc3cccc4[nH]cnc34)cc2[N+](=O)[O-])C1 [Example 455, 2-(1H-benzimidazol-4-yloxy)-4-(4-{[2-(4-chlorophenyl)-4,4-dimethylcyclohex-1-en-1-yl]methyl}piperazin-1-yl)-N-({4-[({(2R)-4-[2-(2-methoxyethoxy)ethyl]morpholin-2-yl}methyl)amino]-3-nitrophenyl}sulfonyl)benzamide]
[1]
  Ki: 0.004 nM
[1]; [3]
  Binding selectivity ratio (Bcl-XL Ki/Bcl-2 Ki): 139.4
[2]
  Ki: 0.619 nM

## CC1(C)CCC(CN2CCN(c3ccc(C(=O)NS(=O)(=O)c4cnc(OCCn5ccnc5)c(Cl)c4)c(Oc4cccc5[nH]ncc45)c3)CC2)=C(c2ccc(Cl)cc2)C1 [Example 485, N-({5-chloro-6-[2-(1H-imidazol-1-yl)ethoxy]pyridin-3-yl}sulfonyl)-4-(4-{[2-(4-chlorophenyl)-4,4-dimethylcyclohex-1-en-1-yl]methyl}piperazin-1-yl)-2-(1H-indazol-4-yloxy)benzamide]
[1]
  Ki: 0.167 nM
[1]; [3]
  Binding selectivity ratio (Bcl-XL Ki/Bcl-2 Ki): 324.0
[2]
  Ki: 54.2 nM

## O=C(NS(=O)(=O)c1ccc(NCC2CCOCC2)c([N+](=O)[O-])c1)c1ccc(N2CCN(Cc3ccccc3-c3ccc(Cl)cc3)CC2)cc1Oc1cccc2ccccc12 [Example 34, 4-{4-[(4′-chloro-1,1′-biphenyl-2-yl)methyl]piperazin-1-yl}-2-(1-naphthyloxy)-N-({3-nitro-4-[(tetrahydro-2H-pyran-4-ylmethyl)amino]phenyl}sulfonyl)benzamide]
[1]; GST-Bcl-2, F-Bak peptide probe
  Ki: 1.99 nM
[2]; [4]
  Ki: 88 nM

## COCCOCCN1CC[C@@H](Nc2ccc(S(=O)(=O)NC(=O)c3ccc(N4CCN(CC5=C(c6ccc(Cl)cc6)CC(C)(C)CC5)CC4)cc3Oc3cccc4[nH]cnc34)cc2[N+](=O)[O-])C1 [Example 429, 2-(1H-benzimidazol-4-yloxy)-4-(4-{[2-(4-chlorophenyl)-4,4-dimethylcyclohex-1-en-1-yl]methyl}piperazin-1-yl)-N-{[4-({(3R)-1-[2-(2-methoxyethoxy)ethyl]pyrrolidin-3-yl}amino)-3-nitrophenyl]sulfonyl}benzamide]
[1]; GST-Bcl-2, F-Bak peptide probe
  Ki: < 0.01 nM
[1]; [5]
  Binding selectivity ratio (Bcl-XL Ki/Bcl-2 Ki): 140.7
[2]; [4]
  Ki: 1.41 nM

## CC1(C)CCC(CN2CCN(c3ccc(C(=O)NS(=O)(=O)c4cnc(OCC5CC5(F)F)c(Cl)c4)c(Oc4cccc5[nH]ncc45)c3)CC2)=C(c2ccc(Cl)cc2)C1 (stereo not drawn) [Example 491, N-({5-chloro-6-[(2,2-difluorocyclopropyl)methoxy]pyridin-3-yl}sulfonyl)-4-(4-{[2-(4-chlorophenyl)-4,4-dimethylcyclohex-1-en-1-yl]methyl}piperazin-1-yl)-2-(1H-indazol-4-yloxy)benzamide]
[1]
  Ki: 0.017 nM
[1]; [3]
  Binding selectivity ratio (Bcl-XL Ki/Bcl-2 Ki): 4600.5
[2]
  Ki: 77.2 nM
